Here are results for one compound from patent publication US8828974B2, “Substituted propane phosphinic acid derivatives” (Aventis Pharmaceuticals Inc., priority 2004, dated 2014).

Series [1] is described as follows: Relative bioavailability of parent compound 1 in plasma and brain after oral gavage in mice (Example 39). Type of series: in vivo, Male CD1 mice. The following applies: mouse brain samples 2, 4 and 7 hrs post-dose, LC/MS/MS. On the procedure: Animals: Male CD1 mice (Charles River) weighing about 25 g—with free access to food and water.
Dose Groups: The compounds of this invention were administered to the test animals at a dose, which is molar equivalent to 10 mg/kg of the parent compound 1, ((R)-3-amino-2-hydroxy-propyl)-cyclohexylmethyl-phosphinic acid. Each of the test compounds was formulated at this dose level to yield a dose volume of 10 mL/kg and administered by oral gavage to a group of three mice per time point in each study group.
Formulations: The compounds of this invention were dissolved in vehicle of 0.2% Tween 80 and 0.5% methylcellulose (MC) at a concentration of about 1 mg/mL.
Samples: The blood samples (for plasma) were collected at the following time points: 5, 15 30 and 45 min […]; and 1, 2, 3, 4, 5, and 7 hrs post-dose. Brains were collected at 2, 4 and 7 hrs post-dose
Blood Handling: The blood samples were added to tubes containing 20 μL of a stock 10 mg/ml solution of sodium fluoride. The blood tubes were then stored in a refrigerator at approximately about 4° C. The volume of blood in each of these samples was about 0.4 mL. The samples were then centrifuged in a refrigerated centrifuge. […]
Bioanalysis: All plasma and brain samples were then analyzed for concentrations of the test compound as well as the parent compound 1, ((R)-3-amino-2-hydroxy-propyl)-cyclohexylmethyl-phosphinic acid by LC/MS/MS. […]

Series [2] concerns Male Wistar rats. The experiment in a line: Chronic Mild Stress Model (CMS), sucrose consumption. Type of series: in vivo, rat. The following applies: 3 and 30 mg/kg orally, daily for five weeks; imipramine 10 mg/kg ip. On the procedure:
The following CMS study is performed using the parent compound 1 (hereafter “compound 1”) in comparison to known anti-depressant compound imipramine.
Male Wistar rats are brought into the laboratory two months before the start of the experiment at which time they weighed approximately 300 grams. Except as described below, the animals are singly housed, with food and water freely available, and maintained on a 12 hour light/dark cycle (lights on at 8 AM) at a temperature of about 22° C.
The animals are first trained to consume a 1% sucrose solution; training consists of eight 1 hour baseline tests in which sucrose is presented, in the home cage, following 14 hours food and water deprivation; intake is measured by weighing pre-weighed bottles containing the sucrose solution at the end of the test. Subsequently, sucrose consumption is monitored, under similar conditions, at weekly intervals throughout the whole experiment.
On the basis of their sucrose intakes in the final baseline test, the animals are divided into two matched groups. One group of animals is subjected to a chronic mild stress procedure for a period of 9 consecutive weeks. […]
Results are analyzed by multiple analysis of variance, followed by Fisher's LSD test for post hoc comparisons of means.

The structures appear in SMILES notation.

With `NC[C@@H](O)CP(=O)(O)CC1CCCCC1` [compound 1, ((R)-3-amino-2-hydroxy-propyl)-cyclohexylmethyl-phosphinic acid], in series [1], the “concentration of the parent compound 1 in brain” value was “proportional to the concentration of the parent compound in plasma”. Further, in series [2], the “activity in CMS (sucrose intake) compared with imipramine” value is on record as “equal to that of imipramine”.
